According to PMC1084349 (BMC Neuroscience, 2005):
Where a SMILES comes first, the peptide text is derived from it.

How the values were obtained:
[1] = biological target: T1, rTas1r2-rTas1r3 V738A (Rattus norvegicus, UniProt Q923K1+Q9Z0R7, V738A); assay: Calcium mobilization (FLIPR), rTas1r3-V738A variant; format: cell-based; settings: asp 15 mM; cyc 30 mM; neo 0.1 mM; sac 10 mM; suc 100 mM; stev 1 mM
T1 construct: expressed in transfected cells; host or cells: HEK293T cells stably expressing Gα16gust44
T1 sequence (Q9Z0R7 20-843): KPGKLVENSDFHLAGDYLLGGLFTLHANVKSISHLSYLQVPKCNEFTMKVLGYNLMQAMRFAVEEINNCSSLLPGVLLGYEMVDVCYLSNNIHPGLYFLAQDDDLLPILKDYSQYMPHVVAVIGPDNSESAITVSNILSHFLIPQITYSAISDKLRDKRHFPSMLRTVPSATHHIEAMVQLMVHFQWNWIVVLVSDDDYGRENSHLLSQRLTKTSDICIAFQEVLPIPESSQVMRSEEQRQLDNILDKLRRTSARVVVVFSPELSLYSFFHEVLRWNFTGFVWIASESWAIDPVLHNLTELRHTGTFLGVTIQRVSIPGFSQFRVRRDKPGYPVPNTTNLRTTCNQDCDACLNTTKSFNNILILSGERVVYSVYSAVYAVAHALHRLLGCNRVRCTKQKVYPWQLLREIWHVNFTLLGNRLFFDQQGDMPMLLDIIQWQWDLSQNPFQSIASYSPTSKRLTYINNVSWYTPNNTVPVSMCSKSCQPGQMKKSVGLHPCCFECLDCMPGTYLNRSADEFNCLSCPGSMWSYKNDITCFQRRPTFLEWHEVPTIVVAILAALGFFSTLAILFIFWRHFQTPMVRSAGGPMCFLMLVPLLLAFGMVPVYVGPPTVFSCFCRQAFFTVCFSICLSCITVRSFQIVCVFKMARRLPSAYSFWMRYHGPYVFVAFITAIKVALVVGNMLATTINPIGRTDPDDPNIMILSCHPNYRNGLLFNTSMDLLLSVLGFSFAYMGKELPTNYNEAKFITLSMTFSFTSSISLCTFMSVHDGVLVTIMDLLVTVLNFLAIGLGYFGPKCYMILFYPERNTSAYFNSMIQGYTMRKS
T1 sequence (Q923K1 21-858 V738A): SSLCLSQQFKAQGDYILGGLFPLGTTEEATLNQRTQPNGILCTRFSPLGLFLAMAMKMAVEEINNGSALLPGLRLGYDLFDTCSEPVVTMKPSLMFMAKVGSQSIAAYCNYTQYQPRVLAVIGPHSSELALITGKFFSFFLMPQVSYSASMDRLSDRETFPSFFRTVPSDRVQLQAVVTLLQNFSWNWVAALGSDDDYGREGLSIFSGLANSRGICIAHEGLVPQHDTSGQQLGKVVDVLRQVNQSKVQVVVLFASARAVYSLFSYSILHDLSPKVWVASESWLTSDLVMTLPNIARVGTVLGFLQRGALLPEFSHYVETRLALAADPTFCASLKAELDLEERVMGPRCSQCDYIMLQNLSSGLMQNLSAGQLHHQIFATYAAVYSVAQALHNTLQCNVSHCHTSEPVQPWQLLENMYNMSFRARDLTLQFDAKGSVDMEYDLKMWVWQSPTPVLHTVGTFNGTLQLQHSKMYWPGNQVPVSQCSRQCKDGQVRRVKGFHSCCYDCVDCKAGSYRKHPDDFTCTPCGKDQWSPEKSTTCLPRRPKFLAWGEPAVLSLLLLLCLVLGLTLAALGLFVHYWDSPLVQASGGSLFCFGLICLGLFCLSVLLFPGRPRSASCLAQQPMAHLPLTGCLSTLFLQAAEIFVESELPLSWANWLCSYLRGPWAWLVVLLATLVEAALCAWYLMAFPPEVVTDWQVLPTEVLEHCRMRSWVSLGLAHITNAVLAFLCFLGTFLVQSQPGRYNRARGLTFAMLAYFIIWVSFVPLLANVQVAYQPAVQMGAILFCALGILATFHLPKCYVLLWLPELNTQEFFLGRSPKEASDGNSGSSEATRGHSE
Source text: Receptor mutants were generated by site directed mutagenesis according to the QuikChange protocol (Stratagene). The forward and reverse complement primers contained the desired mutations and annealed to the same sequence on opposite strands of the plasmids. The following rTas1r3 receptor variants were generated: m1: S576L; m2: R632Q, S635P, S637Q; m3: M644L A645S; m4: A702T; m5: Q717H, V718M, V723A, E725V; m6: L735F, V738A, I740A. m6/1: V738A, I740A, m6/2: L735F, I740A, m6/3: L735F, V738A. m7: A793V, Y794L, Q795R. Subsequently a rTas1r3-V738A variant was generated. All constructs were checked by sequencing.
The cDNAs were transiently transfected into HEK293T cells stably expressing the chimeric G-protein subunit Gα16gust44 [20] using Lipofectamine 2000 (Invitrogen) according to the manufacturer's protocol. 3–4 hours after transfection, DMEM was replaced by low-glucose DMEM supplemented with GlutaMAX and 10% dialyzed FBS (Invitrogen). 22–44 hours later, cells were loaded for 1 hour with the calcium sensitive dye Fluo4-AM (2 μg/ml in DMEM, Molecular Probes). […] Calcium mobilization was monitored by an automated fluorometric imaging plate reader (FLIPR, Molecular Devices). Ligands (Sigma-Aldrich, Merck) were dissolved in C1 solution. All data were collected from at least two independent experiments carried out in triplicate. The obtained calcium signals were corrected for the response of mock transfected cells and normalized to the fluorescence of cells prior to the stimulus using ΔF/F=(F-F0)/F0.
(a, b) Responses of cells co-transfected with rTas1r2 and rTas1r3 mutants to stimulation with 1 mM stevioside. […] All sweeteners were used at concentrations which were close to the maximal obtainable signal.

[2] = system: human TAS1R2-TAS1R3 heteromer; settings: cited from earlier work

## COC(=O)[C@H](Cc1ccccc1)NC(=O)[C@@H](N)CC(=O)O [aspartame] (HELM PEPTIDE1{D.F.[CO[*:1]]}$$$$V2.0)
[1]
  activation of receptor (calcium response): not
[2]
  activation of heteromer: only activate the human

## O=S(=O)(O)NC1CCCCC1 [cyclamate]
[1]
  activation of receptor (calcium response): not
[2]
  activation of heteromer: only activate the human

## COc1ccc(CCC(=O)c2c(O)cc(O[C@@H]3O[C@H](CO)[C@@H](O)[C@H](O)[C@H]3O[C@@H]3O[C@@H](C)[C@H](O)[C@@H](O)[C@H]3O)cc2O)cc1O [neohesperidine dihydrochalcone]
[1]
  activation of receptor (calcium response): not

## C=C1C[C@@]23CC[C@H]4[C@@](C)(CCC[C@@]4(C)C(=O)O[C@@H]4O[C@H](CO)[C@@H](O)[C@H](O)[C@H]4O)[C@@H]2CC[C@]1(O[C@@H]1O[C@H](CO)[C@@H](O)[C@H](O)[C@H]1O[C@@H]1O[C@H](CO)[C@@H](O)[C@H](O)[C@H]1O)C3 [stevioside]
[1]
  activation of receptor (calcium response): activated

## OC[C@H]1O[C@@](CO)(O[C@H]2O[C@H](CO)[C@@H](O)[C@H](O)[C@H]2O)[C@@H](O)[C@@H]1O [sucrose]
[1]
  activation of receptor (calcium response): activated
